Legend:
[1] = tested on: patients with dyslipidemia showing a high level of triglyceride (TG); experiment: Pooled clinical trial data (8 tests, 12 weeks or more): effects on ALP and total bilirubin; assay type: in vivo, human; parameters: ALP level, Rate of change (LSmean) / total bilirubin level, Rate of change (LSmean): unit not given here; conditions: for ALP level, Rate of change (LSmean) / total bilirubin level, Rate of change (LSmean): 12 weeks vs baseline; for ALP level, Rate of change (LSmean): placebo 0.5; for total bilirubin level, Rate of change (LSmean): placebo 6.1
Procedure: Compound. A was administered at a dose of 0.05 to 0.4 mg per day to Compound A group. […] Note that comparisons between the groups were investigated by using covariance analysis with baseline levels used as covariates.

[2] = tested on: patients with dyslipidemia showing a high level of TG being treated with ursodeoxycholic acid; experiment: Pooled clinical trial data, subset being treated with ursodeoxycholic acid: effects on ALP and total bilirubin; assay type: in vivo, human
Procedure: Data of patients being treated with ursodeoxycholic acid (15 cases in total) were extracted from the data obtained in a clinical trial (8 tests with an administration period of 12 weeks or more) of Compound A, which had been performed for patients with dyslipidemia showing a high level of TG, the effects of Compound A for the ALP and the total bilirubin were investigated. Compound A was administered at a dose of 0.05 to 0.4 mg per day to Compound A group. Further, placebo was administered to a control group. Each compound was administered to Compound A group and a control group for 12 weeks, and changes in the levels of ALP before and after the administration are shown in Table 3 and FIG. 3, and changes in the levels of total bilirubin before and after the administration are shown in Table 4 and FIG. 4. Note that comparisons between the groups were investigated by using covariance analysis with baseline levels used as covariates.

[3] = 0.05 to 0.4 mg per day, 12 weeks
[4] = patients being treated with ursodeoxycholic acid, 12 weeks

For `CC[C@@H](Oc1cccc(CN(CCCOc2ccc(OC)cc2)c2nc3ccccc3o2)c1)C(=O)O` [Compound A, (R)-2-[3-[[N-(benzoxazol-2-yl)-N-3-(4-methoxyphenoxy)propyl]aminomethyl]phenoxy] butyric acid], which “effect on level of ALP as compared with placebo” value [1, 3] is on record?
The value was “decreases dose-dependently”.

And the “effect on level of total bilirubin as compared with placebo” value [1, 3]?
Its value is “decreases dose-dependently”.

And the “ALP level, Rate of change (LSmean)” value ([1]; Compound A 0.05 mg/day)?
Its value is −13.4.

And the “total bilirubin level, Rate of change (LSmean)” value ([1]; Compound A 0.05 mg/day)?
The value was −16.4.

What about the “total bilirubin level, 12 Weeks” value ([1]; Compound A 0.05 mg/day, 12 weeks, n 37, baseline 0.8) of the same compound?
The value was 0.6 mg/dL.

What about the “ALP level, 12 Weeks” value ([1]; Compound A 0.05 mg/day, 12 weeks, n 37, baseline 234.4) of the same compound?
Its value is 201.5 IU/L.

What about the “ALP level, Rate of change (LSmean)” value ([1]; Compound A 0.1 mg/day) of the same compound?
The value was −22.1.

What about the “total bilirubin level, Rate of change (LSmean)” value ([1]; Compound A 0.1 mg/day) of the same compound?
The value was −7.7.

And the “total bilirubin level, 12 Weeks” value ([1]; Compound A 0.1 mg/day, 12 weeks, n 127, baseline 0.8)?
The value was 0.7 mg/dL.

What about the “ALP level, 12 Weeks” value ([1]; Compound A 0.1 mg/day, 12 weeks, n 127, baseline 228.4) of the same compound?
Its value is 177.4 IU/L.

And the “ALP level, Rate of change (LSmean)” value ([1]; Compound A 0.2 mg/day)?
Its value is −29.4.

And the “total bilirubin level, Rate of change (LSmean)” value ([1]; Compound A 0.2 mg/day)?
The value was −11.9.

And the “total bilirubin level, 12 Weeks” value ([1]; Compound A 0.2 mg/day, 12 weeks, n 846, baseline 0.8)?
Its value is 0.7 mg/dL.

What about the “ALP level, 12 Weeks” value ([1]; Compound A 0.2 mg/day, 12 weeks, n 846, baseline 235.6) of the same compound?
Its value is 164.7 IU/L.

And the “ALP level, Rate of change (LSmean)” value ([1]; Compound A 0.4 mg/day)?
Its value is −35.3.

What about the “total bilirubin level, Rate of change (LSmean)” value ([1]; Compound A 0.4 mg/day) of the same compound?
Its value is −10.4.

What about the “total bilirubin level, 12 Weeks” value ([1]; Compound A 0.4 mg/day, 12 weeks, n 319, baseline 0.8) of the same compound?
Its value is 0.6 mg/dL.

And the “ALP level, 12 Weeks” value ([1]; Compound A 0.4 mg/day, 12 weeks, n 319, baseline 225.1)?
The value was 145.0 IU/L.

What about the “effect on level of ALP compared with fenofibrate 200 mg per day” value ([1]; Compound A at a dose of 0.1 mg or more, 12 weeks) of the same compound?
The value was “decreases the level of ALP more strongly than the fenofibrate at the maximum clinical dose”.

And the “total bilirubin level, Rate of change (LSmean)” value ([2]; Compound A 0.05 to 0.4 mg per day, 12 weeks vs baseline, patients on UDCA, placebo 41.2)?
Its value is −18.5.

What about the “ALP level, Rate of change (LSmean)” value ([2]; Compound A 0.05 to 0.4 mg per day, 12 weeks vs baseline, patients on UDCA, placebo −1.1) of the same compound?
Its value is −22.6.

What about the “total bilirubin level, 12 Weeks” value ([2]; Compound A 0.05 to 0.4 mg per day, 12 weeks, patients on UDCA, n 13, baseline 0.7) of the same compound?
Its value is 0.6 mg/dL.

And the “ALP level, 12 Weeks” value ([2]; Compound A 0.05 to 0.4 mg per day, 12 weeks, patients on UDCA, n 13, baseline 295.5)?
Its value is 229.5 IU/L.

What about the “effect on level of ALP” value [2, 4] of the same compound?
Its value is “decreases”.

And the “effect on level of total bilirubin” value [2, 4]?
Its value is “decreases”.

— US20210069157A1, “AGENT FOR TREATMENT OF PBC” (Kowa Company, Ltd, priority 2016, published 2021)
